How the values were obtained:
3T3-L1 adipocytes = assay: Adiponectin secretion promoting effect, Western blotting of culture supernatant; type: cell-based; conditions: for adiponectin secretion promoting effect: in words, no time or concentration stated
Method: (§1) 3T3-L1 adipocytes can be allowed to grow and maintained in a 5% CO2 environment in high-glucose DMEM containing 50 U/ml penicillin, 50 μg/ml streptomycin, and 10% FCS. The 3T3-L1 cells were subcultured in a dish of 3.5 cm in diameter until confluent and then sufficiently differentiated into adipocytes by culture for another 2 days in the presence of insulin (10 μg/ml), dexamethasone ([…]), and IBMX (3-isobutyl-1-methylxanthine) (0.5 mM). Teadenol A (10 μM) or DMSO (vehicle control) was added to the sufficiently differentiated 3T3-L1 adipocytes, and each culture supernatant was collected after 8, 24, 32, and 48 hours. The amount of adiponectin secreted was determined by Western blotting method.

PTP1B = PTP1B expression inhibitory effect in 3T3-L1 adipocytes, Western blotting; type: cell-based; conditions: for PTP1B expression inhibitory effect: in words, no time or concentration stated
Method: as §1
Teadenol A (10 μM) or DMSO (vehicle control) was added to the sufficiently differentiated 3T3-L1 adipocytes. After culture for 8, 24, 32, and 48 hours, the cells were collected, and the amount of PTP1B […] and the amount of α-tubulin were determined by Western blotting method.

[1] = Test of visceral fat and adiponectin functions (method not described); type: in vivo; conditions: in words

Row | SMILES | adiponectin secretion promoting activity (3T3-L1 adipocytes; 10 μM, 3T3-L1 adipocytes, statistically significant difference after 24 and 48 hours) | PTP1B expression inhibitory activity (PTP1B; 10 μM, 3T3-L1 adipocytes, statistically significant difference after 32 hours) | adiponectin [1] | visceral fat [1] | adiponectin secretion promoting effect (3T3-L1 adipocytes) | PTP1B expression inhibitory effect (PTP1B)
1 | C=C1C=C(C(=O)O)O[C@@H]2Cc3c(O)cc(O)cc3O[C@H]12 [Teadenol A, teadenol A] | effective | effective | increasing adiponectin | decreasing visceral fat | – | –
2 | C=C1C=C(C(=O)O)O[C@@H]2Cc3c(O)cc(O)cc3O[C@@H]12 [Teadenol B, teadenol B] | – | – | – | – | effective | effective
3 | C=C1C=C(C(=O)O)O[C@@H]2Cc3c(O)cc(O)cc3OC12 (some centres unmarked) [compound (1)] | – | – | – | – | confirmed to have | confirmed to have
